Values of other authors as cited in patent publication US6548270B1, “DNA encoding human acid-sensing ion channel BNaC4 (ASIC4)” (Ortho-McNeil Pharmaceutical, Inc., priority 2000, dated 2003).

What was measured:
ASIC1B = target: T1, ASIC1B (Rattus norvegicus, UniProt P55926); conditions: read-out: Amiloride sensitivity, IC50; cited from earlier work
T1 sequence (P55926 1-559 isoform P55926-3): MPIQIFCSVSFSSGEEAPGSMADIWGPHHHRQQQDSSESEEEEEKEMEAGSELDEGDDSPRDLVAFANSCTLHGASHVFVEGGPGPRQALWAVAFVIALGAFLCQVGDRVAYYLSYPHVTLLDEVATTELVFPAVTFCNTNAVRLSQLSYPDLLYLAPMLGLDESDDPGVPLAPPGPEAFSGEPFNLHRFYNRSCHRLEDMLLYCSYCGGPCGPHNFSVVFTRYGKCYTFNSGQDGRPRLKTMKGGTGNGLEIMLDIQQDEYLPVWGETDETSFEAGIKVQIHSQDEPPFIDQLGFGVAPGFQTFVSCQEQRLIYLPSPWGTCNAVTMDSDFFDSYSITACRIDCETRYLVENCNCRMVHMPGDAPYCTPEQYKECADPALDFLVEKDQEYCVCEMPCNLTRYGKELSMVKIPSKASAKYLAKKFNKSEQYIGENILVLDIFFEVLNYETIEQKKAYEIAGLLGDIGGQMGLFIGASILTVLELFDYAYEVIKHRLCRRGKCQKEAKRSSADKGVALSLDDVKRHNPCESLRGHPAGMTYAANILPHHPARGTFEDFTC

ASIC2a = ASIC2a gain of function mutant channels; cited from earlier work
MDEG1 + MDEG2 = target: T2, MDEG1 + MDEG2 (Rattus norvegicus, UniProt Q62962); conditions: 500 μM amiloride; cited from earlier work
T2 sequence (Q62962 1-512): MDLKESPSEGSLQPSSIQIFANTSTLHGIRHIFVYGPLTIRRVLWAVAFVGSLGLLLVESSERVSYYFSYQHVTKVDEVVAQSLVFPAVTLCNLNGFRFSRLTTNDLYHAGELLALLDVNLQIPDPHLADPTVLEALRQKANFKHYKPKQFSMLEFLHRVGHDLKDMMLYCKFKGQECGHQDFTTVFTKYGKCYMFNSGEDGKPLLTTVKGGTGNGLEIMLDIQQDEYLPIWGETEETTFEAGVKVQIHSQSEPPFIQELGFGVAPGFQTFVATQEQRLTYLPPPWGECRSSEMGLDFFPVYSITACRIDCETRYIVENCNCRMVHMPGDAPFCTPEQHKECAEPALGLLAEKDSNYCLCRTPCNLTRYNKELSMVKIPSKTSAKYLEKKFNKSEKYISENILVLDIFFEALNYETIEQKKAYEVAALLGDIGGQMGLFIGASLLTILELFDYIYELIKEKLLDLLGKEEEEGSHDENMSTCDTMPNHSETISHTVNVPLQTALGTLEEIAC
T2 sequence (Q62962 1-563 isoform Q62962-2): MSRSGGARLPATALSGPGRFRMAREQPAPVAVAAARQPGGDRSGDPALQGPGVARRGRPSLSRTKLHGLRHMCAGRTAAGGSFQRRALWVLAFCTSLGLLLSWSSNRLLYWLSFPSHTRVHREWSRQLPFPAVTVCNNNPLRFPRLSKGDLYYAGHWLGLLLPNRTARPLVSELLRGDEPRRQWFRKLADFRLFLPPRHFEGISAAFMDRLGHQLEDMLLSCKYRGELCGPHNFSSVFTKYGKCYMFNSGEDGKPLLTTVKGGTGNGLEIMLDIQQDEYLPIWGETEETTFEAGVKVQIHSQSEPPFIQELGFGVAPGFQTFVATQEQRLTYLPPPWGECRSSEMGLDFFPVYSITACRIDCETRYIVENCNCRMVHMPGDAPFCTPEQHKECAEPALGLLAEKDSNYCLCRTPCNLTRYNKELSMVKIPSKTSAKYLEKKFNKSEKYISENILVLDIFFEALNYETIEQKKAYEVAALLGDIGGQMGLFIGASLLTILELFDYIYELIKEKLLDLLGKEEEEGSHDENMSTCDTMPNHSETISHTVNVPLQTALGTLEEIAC

Rat ASIC3 = target: T3, Rat ASIC3 (Rattus norvegicus, UniProt O35240); conditions: cited from earlier work
T3 sequence (O35240 1-533): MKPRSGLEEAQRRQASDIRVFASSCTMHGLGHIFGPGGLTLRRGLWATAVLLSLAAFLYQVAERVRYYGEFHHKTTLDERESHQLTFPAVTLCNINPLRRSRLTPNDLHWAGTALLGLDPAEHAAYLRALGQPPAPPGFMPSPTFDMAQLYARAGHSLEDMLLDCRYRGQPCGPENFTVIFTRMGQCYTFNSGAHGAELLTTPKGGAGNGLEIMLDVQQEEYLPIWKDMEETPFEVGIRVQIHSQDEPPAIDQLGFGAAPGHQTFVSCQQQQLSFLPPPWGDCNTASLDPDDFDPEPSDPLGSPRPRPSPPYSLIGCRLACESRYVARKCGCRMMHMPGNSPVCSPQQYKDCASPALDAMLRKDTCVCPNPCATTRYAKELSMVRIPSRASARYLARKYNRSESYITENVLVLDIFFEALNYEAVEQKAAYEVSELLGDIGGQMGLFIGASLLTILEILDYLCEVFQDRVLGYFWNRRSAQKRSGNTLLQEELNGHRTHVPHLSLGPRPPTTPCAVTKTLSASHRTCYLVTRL

In the case of `N=C(N)NC(=O)c1nc(Cl)c(N)nc1N` [amiloride], the IC50 (ASIC1B) is given as 21 µM, the “Amiloride sensitivity (block of channels)” value (ASIC2a) is given as “Amiloride blocked gain of function” and the “Amiloride sensitivity (block)” value (MDEG1 + MDEG2) is given as “MDEG1 + MDEG2 completely”. For the same molecule, the IC50 (Rat ASIC3; rat ASIC3 fast component, read-out: Amiloride sensitivity, K0.5, fast component) was roughly 60 µM and the “effect of amiloride on slow component” value (Rat ASIC3; rat ASIC3 slow component) was “potentiated by amiloride (Waldmann”.
